Assays:
human subjects = experiment: Drug-assisted psychotherapy in individuals for whom MDMA therapy is ineffective; format: in vivo
Excerpt: Inter alia, 5-MAPB or 6-APB-assisted psychotherapy is effective in post-traumatic stress disorder (PTSD) therapy, couple's therapy, and therapy for anxiety disorders.

[1] = animal models, after oral ingestion; cited from earlier work

| Structure (SMILES) | therapeutic efficacy in the psychotherapeutic context (human subjects) | apparent plasma half-life [1] |
| --- | --- | --- |
| CC(N)Cc1ccc2ccoc2c1 (stereo not shown) [6-APB, 1-Benzofuran-6-yl propan-2-amine] | significant enhancement of therapeutic efficacy | approximately 1 hour |
| CNC(C)Cc1ccc2occc2c1 (stereo not shown) [5-MAPB, 1-(Benzofuran-5-yl)-N-methylpropan-2-amine] | significant enhancement of therapeutic efficacy | approximately 1 hour |
